Results taken from ChEMBL document CHEMBL1811766, “Structure-activity relationship studies of novel pyrazole and imidazole carboxamides as cannabinoid-1 (CB1) antagonists” (Bioorg Med Chem Lett, 2011).

Legend:
[1] = target: Cannabinoid receptor 2 (Homo sapiens) (UniProt P34972); test: Displacement of [3H]CP55940 from human cannabinoid CB2 receptor expressed in CHO cells at 1 uM at pH 7.4 after 1 hr by liquid scintillation counting; assay type: cell-based
[2] = target: Cannabinoid receptor 1 (Rattus norvegicus, UniProt P20272); test: Displacement of [3H]SR141716A from rat brain CB1 receptor at pH 7.4 after 1 hr by liquid scintillation counting
Sequence of Cannabinoid receptor 1 (P20272 whole entry): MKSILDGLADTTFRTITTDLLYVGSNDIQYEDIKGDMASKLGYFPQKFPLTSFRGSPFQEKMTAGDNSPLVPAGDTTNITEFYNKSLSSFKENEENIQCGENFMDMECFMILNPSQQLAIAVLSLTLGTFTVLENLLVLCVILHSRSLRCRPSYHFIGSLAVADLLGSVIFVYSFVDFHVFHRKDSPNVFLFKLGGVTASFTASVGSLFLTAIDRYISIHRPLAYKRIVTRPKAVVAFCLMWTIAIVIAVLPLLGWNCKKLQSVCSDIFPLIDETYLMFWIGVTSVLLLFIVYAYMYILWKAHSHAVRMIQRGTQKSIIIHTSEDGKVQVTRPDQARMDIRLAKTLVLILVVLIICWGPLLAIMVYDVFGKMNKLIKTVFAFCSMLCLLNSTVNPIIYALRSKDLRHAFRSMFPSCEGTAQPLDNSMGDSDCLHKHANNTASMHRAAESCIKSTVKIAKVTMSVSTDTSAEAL

[3] = tested on: Mus musculus; test: Inhibition of WIN-55212 induced hypothermia in Swiss albino mouse assessed as change temperature at 10 mg/kg, po administered 30 mins after WIN55212 challenge measured after 30 mins; assay type: functional; details: 0.5 h
[4] = target: Voltage-gated inwardly rectifying potassium channel KCNH2 (Homo sapiens, UniProt Q12809); test: Inhibition of human ERG expressed in HEK293 cells assessed as inhibition of potassium channel current after 5 mins by patch clamp assay; assay type: cell-based
Sequence of Voltage-gated inwardly rectifying potassium channel KCNH2 (Q12809 whole entry): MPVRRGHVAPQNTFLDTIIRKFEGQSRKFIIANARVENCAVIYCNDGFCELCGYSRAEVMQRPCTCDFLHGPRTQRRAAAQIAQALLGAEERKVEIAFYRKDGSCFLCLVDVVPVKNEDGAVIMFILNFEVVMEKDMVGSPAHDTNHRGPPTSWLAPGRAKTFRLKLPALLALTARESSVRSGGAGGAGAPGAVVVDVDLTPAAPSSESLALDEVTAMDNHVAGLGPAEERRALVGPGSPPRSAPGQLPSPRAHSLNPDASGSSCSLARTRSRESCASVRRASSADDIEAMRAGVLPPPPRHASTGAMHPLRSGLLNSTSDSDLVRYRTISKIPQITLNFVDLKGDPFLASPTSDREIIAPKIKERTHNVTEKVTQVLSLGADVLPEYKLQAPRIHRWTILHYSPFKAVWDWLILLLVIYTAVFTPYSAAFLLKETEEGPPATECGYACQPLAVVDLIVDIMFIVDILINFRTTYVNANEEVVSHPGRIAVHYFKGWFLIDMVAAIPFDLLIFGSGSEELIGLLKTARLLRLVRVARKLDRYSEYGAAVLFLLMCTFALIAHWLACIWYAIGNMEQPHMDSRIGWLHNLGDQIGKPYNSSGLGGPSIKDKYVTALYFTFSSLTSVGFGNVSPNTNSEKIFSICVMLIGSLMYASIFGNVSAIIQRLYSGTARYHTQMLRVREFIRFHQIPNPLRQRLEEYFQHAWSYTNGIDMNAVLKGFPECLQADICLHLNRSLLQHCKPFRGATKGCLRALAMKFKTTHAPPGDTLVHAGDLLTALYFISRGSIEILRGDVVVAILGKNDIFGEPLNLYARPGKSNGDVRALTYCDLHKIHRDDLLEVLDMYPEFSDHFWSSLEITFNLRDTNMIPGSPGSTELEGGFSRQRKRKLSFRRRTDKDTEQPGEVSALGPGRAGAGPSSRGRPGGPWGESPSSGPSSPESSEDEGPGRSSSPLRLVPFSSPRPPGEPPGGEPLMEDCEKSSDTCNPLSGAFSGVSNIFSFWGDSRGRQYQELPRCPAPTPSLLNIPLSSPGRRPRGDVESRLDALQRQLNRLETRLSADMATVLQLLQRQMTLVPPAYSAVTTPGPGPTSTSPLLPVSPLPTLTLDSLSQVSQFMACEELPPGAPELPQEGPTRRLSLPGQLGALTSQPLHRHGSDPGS

[5] = target: T1, hERG (KCNH2) (Homo sapiens, UniProt Q12809); test: Inhibition of human ERG expressed in HEK293 cells assessed as inhibition of potassium channel current at 30 uM after 5 mins by patch clamp assay; assay type: cell-based; details: HEK293 cells expressing human ERG
T1 sequence (Q12809 whole entry): as above

[6] = tested on: Mus musculus; test: Antiobesity activity in Swiss albino mouse assessed as reduction in acute food intake at 10 mg/kg, po administered as single dose relative to control; assay type: functional; set-up: scale not given: the % may be the effect or the level left
[7] = tested on: Mus musculus; test: Antiobesity activity in Swiss albino mouse assessed as reduction in acute food intake at 30 mg/kg, po administered as single dose relative to control; assay type: functional; set-up: scale not given: the % may be the effect or the level left
[8] = tested on: Mus musculus; test: Antiobesity activity in Swiss albino mouse assessed as reduction in acute food intake administered orally as single dose; assay type: functional, organism-based
[9] = Ratio of drug level in brain to plasma in Swiss albino mouse at 30 mg/kg, po measured 1 hr post dose; assay type: ADME, organism-based; set-up: dose 30 mg/kg, route oral; details: read-out: BPR
[10] = AUC (0 to 24 hrs) in Swiss albino mouse at 30 mg/kg, po; assay type: ADME, organism-based; set-up: time < 24 hr, dose 30 mg/kg, route oral; details: plasma
[11] = Cmax in Swiss albino mouse at 30 mg/kg, po; assay type: ADME, organism-based; set-up: dose 30 mg/kg, route oral; details: in vivo
[12] = Half life in Swiss albino mouse at 30 mg/kg, po; assay type: ADME, organism-based; set-up: dose 30 mg/kg, route oral; details: in vivo
[13] = tested on: Mus musculus; test: Antiobesity activity in C57BL/6 mouse assessed as reduction in body weight at 10 mg/kg, po QD for 15 days; assay type: functional; set-up: scale not given: the % may be the effect or the level left
[14] = target: Cannabinoid receptor 1 (Rattus norvegicus) (UniProt P20272); test: Displacement of [3H]SR141716A from rat brain CB1 receptor at 1 uM at pH 7.4 after 1 hr by liquid scintillation counting
Sequence of Cannabinoid receptor 1 (Rattus norvegicus) (P20272 whole entry): as the sequence (P20272 whole entry) above

[15] = target: Cannabinoid receptor 1 (Rattus norvegicus) (UniProt P20272); test: Displacement of [3H]SR141716A from rat brain CB1 receptor at 100 nM at pH 7.4 after 1 hr by liquid scintillation counting
[16] = target: T1, hERG (KCNH2); test: Inhibition of human ERG expressed in HEK293 cells assessed as inhibition of potassium channel current at 10 uM after 5 mins by patch clamp assay; assay type: cell-based; details: HEK293 cells expressing human ERG
[17] = tested on: Mus musculus; test: Inhibition of WIN-55212 induced hypothermia in Swiss albino mouse assessed as change temperature at 3 mg/kg, po administered 30 mins after WIN55212 challenge measured after 30 mins; assay type: functional; details: 0.5 h

Sequence of Cannabinoid receptor 2 (Homo sapiens) (P34972 whole entry): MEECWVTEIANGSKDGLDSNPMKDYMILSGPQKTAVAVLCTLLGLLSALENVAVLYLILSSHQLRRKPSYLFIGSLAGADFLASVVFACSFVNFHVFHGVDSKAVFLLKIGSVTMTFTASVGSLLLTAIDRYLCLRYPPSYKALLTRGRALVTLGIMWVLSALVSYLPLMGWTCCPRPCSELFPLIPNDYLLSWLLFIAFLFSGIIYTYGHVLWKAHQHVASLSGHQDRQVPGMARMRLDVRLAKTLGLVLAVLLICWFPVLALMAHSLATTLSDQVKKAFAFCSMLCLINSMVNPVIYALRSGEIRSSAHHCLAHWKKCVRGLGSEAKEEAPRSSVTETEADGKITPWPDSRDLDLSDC

## CC(C)(NC(=O)c1nn(-c2ccc(Cl)cc2Cl)c(-c2ccc(Cl)cc2)c1CO)c1noc(C(F)(F)F)n1
[1]
  inhibition: 34%
[2]
  IC50: 0.4 nM
[3]
  inhibition in vivo at 10 mg/kg: 97%
[4]
  IC50: > 30000 nM
[5]
  inhibition at 5 min, 30 µM: 38.9%

## Cc1nc(C(C)(C)NC(=O)c2nn(-c3ccc(Cl)cc3Cl)c(-c3ccc(Cl)cc3)c2C)no1
[2]
  IC50: 33 nM

## CCOC(=O)Cc1csc(C(C)(C)NC(=O)c2nn(-c3ccc(Cl)cc3Cl)c(-c3ccc(Cl)cc3)c2C)n1
[2]
  IC50: 10 nM

## Cc1c(C(=O)NC2(c3noc(C(F)(F)F)n3)CC2)nn(-c2ccc(Cl)cc2Cl)c1-c1ccc(Cl)cc1
[1]
  inhibition: 49%
[2]
  IC50: 0.1 nM
[3]
  inhibition in vivo at 10 mg/kg: 97%
[4]
  IC50: > 30000 nM
[5]
  inhibition at 5 min, 30 µM: 7.2%
[6]
  Activity: 31%
[7]
  Activity: 53%
[8]
  Activity: Dose-dependent effect
[9]
  Kp at 1 h: 0.21
[10]
  AUC(0-t) at 24 h: 4300 ng·h/mL
[11]
  Cmax: 350 ng/mL
[12]
  half-life: 4.22 h
[13]
  Activity: 11%

## Cc1c(C(=O)NC(C)(C)c2cn3cc(Cl)ccc3n2)nn(-c2ccc(Cl)cc2Cl)c1-c1ccc(Cl)cc1
[2]
  IC50: 88 nM

## CCc1c(C(=O)NC(C)(C)c2nnnn2C)nn(-c2ccc(Cl)cc2Cl)c1-c1ccc(Br)cc1
[1]
  inhibition: 27%
[2]
  IC50: 0.1 nM
[3]
  inhibition in vivo at 10 mg/kg: 83%
[4]
  IC50: 22700 nM

## CCc1c(C(=O)NC(C)(C)c2nnnn2C)nn(-c2ccc(Cl)cc2Cl)c1-c1ccc(C(=O)O)cc1
[14]
  inhibition: 50%

## O=C(NC1(c2noc(C(F)(F)F)n2)CC1)c1nn(-c2ccc(Cl)cc2Cl)c(-c2ccc(Cl)cc2)c1C(=O)O
[15]
  inhibition: 44%
[14]
  inhibition: 66%

## Cc1c(C(=O)NC2(c3noc(C(F)(F)F)n3)CCC2)nn(-c2ccc(Cl)cc2Cl)c1-c1ccc(Cl)cc1
[2]
  IC50: 0.8 nM

## Cc1c(C(=O)NC(C)(C)c2noc(C(F)(F)F)n2)nn(-c2ccc(Cl)cc2Cl)c1-c1ccc(Cl)cc1
[2]
  IC50: 3 nM

## CCc1c(C(=O)NC(C)(C)c2nnnn2C)nn(-c2ccc(Cl)cc2Cl)c1-c1ccc(C#N)cc1
[2]
  IC50: 22 nM

## CCc1c(C(=O)NC(C)(C)c2nnnn2C)nn(-c2ccc(Cl)cc2Cl)c1-c1ccc(O)cc1
[15]
  inhibition: 23%

## Cc1c(C(=O)NC(C)(C)c2nnc(C(F)(F)F)o2)nn(-c2ccc(Cl)cc2Cl)c1-c1ccc(Cl)cc1
[1]
  inhibition: 64%
[2]
  IC50: 6 nM
[3]
  inhibition in vivo at 10 mg/kg: 97%

## CCc1c(C(=O)NC(C)(C)c2nnnn2C)nn(-c2ccc(Cl)cc2Cl)c1-c1ccc(OC)cc1
[2]
  IC50: 5 nM

## Cc1c(C(=O)NC(C)(C)c2cn3cc(C(F)(F)F)ccc3n2)nn(-c2ccc(Cl)cc2Cl)c1-c1ccc(Cl)cc1
[2]
  IC50: 63 nM

## Cc1c(C(=O)NC(C)(C)c2nnnn2C)nn(-c2ccc(Cl)cc2Cl)c1-c1ccc(Cl)cc1
[2]
  IC50: 145 nM

## CCc1c(C(=O)NC(C)(C)c2nnnn2C)nn(-c2ccc(Cl)cc2Cl)c1-c1ccc(OCC(=O)O)cc1
[14]
  inhibition: 25%
[2]
  IC50: > 1000 nM

## CCOC(=O)c1ccc(-c2c(CC)c(C(=O)NC(C)(C)c3nnnn3C)nn2-c2ccc(Cl)cc2Cl)cc1
[2]
  IC50: 17 nM

## CC(C)(NC(=O)c1cn(-c2ccc(Cl)cc2Cl)c(-c2ccc(Cl)cc2)n1)c1noc(C(F)(F)F)n1
[2]
  IC50: 30 nM

## CCCS(=O)(=O)Oc1ccc(-c2c(C)c(C(=O)NC(C)(C)c3nnnn3C)nn2-c2ccc(Cl)cc2Cl)cc1
[2]
  IC50: 1.1 nM

## CCc1c(C(=O)NC(C)(C)c2nnnn2C)nc(-c2ccc(Cl)cc2Cl)n1-c1ccc(Cl)cc1
[2]
  IC50: 36 nM

## Cc1c(C(=O)NC(C)(C)c2nnn(C)n2)nn(-c2ccc(Cl)cc2Cl)c1-c1ccc(Cl)cc1
[2]
  IC50: 88 nM

## CCc1c(C(=O)NC(C)(C)c2nnnn2C)nn(-c2ccc(Cl)cc2Cl)c1-c1ccc(Cl)cc1
[1]
  inhibition: 16%
[2]
  IC50: 0.5 nM
[3]
  inhibition in vivo at 10 mg/kg: 96%
[16]
  inhibition at 5 min, 10 µM: 59.7%

## CCc1c(C(=O)NC(C)(C)c2nnn(C)n2)nn(-c2ccc(Cl)cc2Cl)c1-c1ccc(Cl)cc1
[2]
  IC50: 39 nM

## CCOC(=O)c1c(C(=O)NC2(c3noc(C(F)(F)F)n3)CC2)nn(-c2ccc(Cl)cc2Cl)c1-c1ccc(Cl)cc1
[2]
  IC50: 1 nM

## Cn1nnnc1C(C)(C)NC(=O)c1nn(-c2ccc(Cl)cc2Cl)c2c1CCCc1cc(Cl)ccc1-2
[2]
  IC50: 31 nM

## CCc1c(C(=O)NC(C)(C)c2noc(C(F)(F)F)n2)nc(-c2ccc(Cl)cc2Cl)n1-c1ccc(Cl)cc1
[2]
  IC50: 3 nM

## Cc1c(C(=O)NC(C)(C)c2nc(CC(=O)O)cs2)nn(-c2ccc(Cl)cc2Cl)c1-c1ccc(Cl)cc1
[14]
  inhibition: 50%

## CC(C)(NC(=O)c1cn(-c2ccc(Cl)cc2Cl)c(-c2ccc(Cl)cc2)n1)c1nnc(C(F)(F)F)o1
[2]
  IC50: 13 nM

## Cc1c(C(=O)NC(C)(C)c2cn3ccsc3n2)nn(-c2ccc(Cl)cc2Cl)c1-c1ccc(Cl)cc1
[2]
  IC50: 11 nM

## Cc1c(C(=O)NC(C)(C)c2cn3cccnc3n2)nn(-c2ccc(Cl)cc2Cl)c1-c1ccc(Cl)cc1
[2]
  IC50: 121 nM

## C[C@H](NC(=O)C(C)(C)Oc1ccc(C(F)(F)F)cn1)[C@@H](Cc1ccc(Cl)cc1)c1cccc(C#N)c1 [TARANABANT]
[2]
  IC50: 0.3 nM

## Cc1c(C(=O)NC(C)(C)c2nnnn2C)nc(-c2ccc(Cl)cc2Cl)n1-c1ccc(Cl)cc1
[15]
  inhibition: 42%

## CCC(C)(NC(=O)c1nn(-c2ccc(Cl)cc2Cl)c(-c2ccc(Cl)cc2)c1C)c1noc(C(F)(F)F)n1 (stereo not given)
[2]
  IC50: 6 nM

## Cc1c(C(=O)NN2CCCCC2)nn(-c2ccc(Cl)cc2Cl)c1-c1ccc(Cl)cc1 [RIMONABANT]
[1]
  inhibition: 34%
[17]
  inhibition in vivo at 3 mg/kg: 99%
[4]
  IC50: 2790 nM
[6]
  Activity: 71%
[9]
  Kp at 1 h: 3.64

## Cc1csc(C(C)(C)NC(=O)c2nn(-c3ccc(Cl)cc3Cl)c(-c3ccc(Cl)cc3)c2C)n1
[2]
  IC50: 15 nM

## Cc1c(C(=O)NC(C)(C)c2nc(C(F)(F)F)cs2)nn(-c2ccc(Cl)cc2Cl)c1-c1ccc(Cl)cc1
[2]
  IC50: 2 nM

## COc1ccc2c(c1)CCCc1c(C(=O)NC(C)(C)c3nnnn3C)nn(-c3ccc(Cl)cc3Cl)c1-2
[15]
  inhibition: 38%

## CCOC(=O)c1sc(C(C)(C)NC(=O)c2nn(-c3ccc(Cl)cc3Cl)c(-c3ccc(Cl)cc3)c2C)nc1C
[2]
  IC50: 22 nM

## CCOC(=O)COc1ccc(-c2c(CC)c(C(=O)NC(C)(C)c3nnnn3C)nn2-c2ccc(Cl)cc2Cl)cc1
[15]
  inhibition: 32%

## COCc1c(C(=O)NC(C)(C)c2noc(C(F)(F)F)n2)nn(-c2ccc(Cl)cc2Cl)c1-c1ccc(Cl)cc1
[2]
  IC50: 4 nM

## O=C(NC1(c2noc(C(F)(F)F)n2)CC1)c1nn(-c2ccc(Cl)cc2Cl)c(-c2ccc(Cl)cc2)c1CO
[1]
  inhibition: 18%
[2]
  IC50: 0.1 nM
[3]
  inhibition in vivo at 10 mg/kg: 99%

## Cc1ncc(C(C)(C)NC(=O)c2nn(-c3ccc(Cl)cc3Cl)c(-c3ccc(Cl)cc3)c2C)s1
[2]
  IC50: 12 nM
